From patent US12338456B2, “Method for increasing the specific production rate of eukaryotic cells” (Hoffmann-La Roche Inc., priority 2014, dated 2025)
“Also recorded” adds a separate entry of the source.

Assays:
[1] = tested on: recombinant CHO-K1 cell line, called clone 1, expressing a humanized monoclonal antibody; assay: CHO fed-batch cultivation with para-, ortho- or meta-Tyr supplementation under Phe non-limitation conditions; format: cell-based, Chinese Hamster
Procedure: (§1) For all cell culture experiments a recombinant CHO-K1 cell line, called clone 1, expressing a humanized monoclonal antibody was used. The recombinant CHO-K1 cell line was generated using an L-methionine sulfoximine sensitive CHO-K1 host cell line (Lonza, Cologne, Germany). The cells were cultivated in protein free, chemically defined CD-CHO medium (Life Technologies, Darmstadt, Germany) supplemented with 50 μM L-methionine sulfoximine (Sigma Aldrich, Munich, Germany) during seed train cultivation. Seed train cultivation was performed in shake flasks using a humidified incubator, 7% CO2, and 37° C. setting. The cells were splitted every three to four days for subcultivation and culture expansion. For all experiments, cells with identical age in culture (appr. 21 generations) until start of the experiment were used.
(§2) All supplementation experiments were performed using shake flask cultivation systems, chemically defined CD-CHO medium without the selection pressure L-methionine sulfoximine and two appropriate serial continuous applied feeds (feed 1 and feed 2). Recombinant CHO-K1 cells producing a humanized monoclonal antibody were inoculated with 3×10^5 viable cells/mL and cultured for 14 days. CD-CHO base medium was sterile supplemented before inoculation with 0.1 mM, 0.3 mM or 0.4 mM of either ortho-Tyr, meta-Tyr or para-Tyr. Control cultivation with no supplementation of ortho-Tyr, meta-Tyr or para-Tyr was used as reference. Phenylalanine (Phe) non-limitation conditions were realized by increasing concentration of Phe in feed 2.
(§3) For analysis of viable and total cell densities an automated Cedex HiRes system (Roche Diagnostics, Mannheim, Germany) was used. Discrimination of viable and total cell densities were evaluated using the trypan blue exclusion staining method and analyzing more than 10 pictures per sample and day according to the manufacturer's specifications. Viable cell density (VCD) and cell viability were calculated as described in equation 1 (Equ 1) and equation 2 (Equ 2), respectively. Viable cell density=NTrypan blue negative×(10^5 viable cells/ml) (Equ 1) Cell viability=NTrypan blue negative/(NTrypan blue negative+NTrypan blue positive cells)×100% (Equ 2)
(§4) As indicator for overall biomass generation in the process a cumulative cell time integral (CTI) was calculated as followed (Equ 3). Cell time integral=Σ(0.5×(VCDn−1+VCDn)×(tn−tn−1))×(10^5 viable cells×d/ml) (Equ 3)
(§5) Product titer war either quantified by a Cobas Integra 400 plus system (Roche, Mannheim, Germany) according to the manufacture's protocol or by PorosA HPLC method as described previously (Zeck et al. 2012). The overall specific productivity qP was calculated for the analysis of cell production capacity according to equation 4. qP=(Titern−Titern−1)/(CTIn−CTIn−1)×(pg/(viable cell×d)) (Equ 4) Determination of Peptide Sequence Variants and Identification of Meta- and Ortho-Tyr Sequence Variants with Synthetic Peptides
In a second approach, the role of meta- and ortho-Tyr supplementation under Phe non-limitation conditions in CHO fed-batch cultivations was analyzed. For that, the amount of Phe in feed 2 was increased to prevent Phe limitation (FIG. 6).

[2] = tested on: recombinant CHO-K1 cell line, called clone 1, expressing a humanized monoclonal antibody; assay: CHO fed-batch cultivation with para-, ortho- or meta-Tyr supplementation under Phe limitation conditions; format: cell-based, Chinese Hamster
Procedure: as §1, §2, §3, §4
Lactate dehydrogenase (LDH) activity in the cell-free supernatant was analyzed using a Cobas Integra 400 plus system (Roche Diagnostics, Mannheim, Germany).
as §5
In concentration screens, a 50% reduction of the […] reduction capacity of CHO cells was observed when supplemented with 0.5 mM meta-Tyr (Gurer-Orhan et al., (2006)). No data or concentration have been reported for ortho-Tyr supplementation in cell cultures to date. Using a dose-dependent cultivation approach, it was aimed to determine the relevance and tolerable concentrations of meta-Tyr and ortho-Tyr on CHO cell growth performance. For this, a CHO cultivation model described in material and methods was supplemented with either 0.1 mM, 0.3 mM or 0.4 mM para-Tyr, ortho-Tyr or meta-Tyr. We used the standard cultivation process with no supplementation as reference, following so-called “control” or “positive control”. Here, Phe will go into limitation by day 10/11.

CHO cells = conditions: cited from earlier work
[3] = 0.1 mM, 0.3 mM or 0.4 mM supplementation

Structure (SMILES)	product titer (product yield) [1]	product concentration (overall productivity, product yield) [2]	final LDH activity in the supernatant ([2]; compared to control, meta-Tyr and para-Tyr supplementation)	cell viability ([2]; day 14)	reduction of the MTX reduction capacity of CHO cells (CHO cells; 0.5 mM meta-Tyr) [%]	cell cytotoxicity (CHO cells; meta-Tyr supplementation of CHO cells)	specific productivity qP (cell-specific product formation rate) [1]	increase of qP compared to control ([1]; 0.1 mM supplementation)	CTI versus other cultures [1, 3]	increase of qP compared to control ([1]; 0.3 mM supplementation)	increase of qP compared to control ([1]; 0.4 mM supplementation)	specific productivity qP (cell-specific product formation rate) [2]	increase of qP compared to control ([2]; 0.1 mM supplementation)	cumulative CTI (cell time integral, overall biomass production) [2, 3]	maximal VCD versus other cultures [2, 3]	increase of qP compared to control ([2]; 0.3 mM supplementation)	increase of qP compared to control ([2]; 0.4 mM supplementation)	impact on cell viability ([2]; fed-batch CHO cultivation)	specific productivity qP (cell-specific product formation rate) ([2]; listed as Meta-Tyr)
NC(Cc1ccccc1O)C(=O)O (stereo not drawn) [ortho-Tyr, ortho-tyrosine, reference compound]	does not alter product yield	does not alter product yield	higher final LDH activity in the supernatant	less than 60%															
N[C@@H](Cc1cccc(O)c1)C(=O)O [meta-Tyr, meta-tyrosine]	does not alter product yield	does not alter product yield			50	dose-dependent cell cytotoxicity	overall higher specific productivity qP; also recorded: increases cell-specific product formation rate qP	+3%	dose dependent reduction in CTI	+26%	+28%	overall higher specific productivity qP	+5%	decreased cumulative CTI	dose dependent reduced maximal VCD	+26%	+36%	no significant impact	increases cell-specific product formation rate qP
